# Measurements published in ChEMBL document CHEMBL1201862, “PubChem BioAssay data set” (2004).
# Active and inactive are the calls of the source.
# What was measured:
# [1] = molecular target: T1, Heat shock factor protein 1 (Mus musculus, UniProt P38532); test: decrease of HSF1-responsive luciferase luminescence – cell-based, NIH3T3, dose retest, confirmation (AID 2382); assay type: functional;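 further: NIH3T3 fibroblasts with HSF1-driven luciferase reporter stressed by proteasome inhibitor MG132; luminescence from HSF1-driven luciferase expression after 8 hours of MG132 stress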
# T1 sequence (P38532 whole entry): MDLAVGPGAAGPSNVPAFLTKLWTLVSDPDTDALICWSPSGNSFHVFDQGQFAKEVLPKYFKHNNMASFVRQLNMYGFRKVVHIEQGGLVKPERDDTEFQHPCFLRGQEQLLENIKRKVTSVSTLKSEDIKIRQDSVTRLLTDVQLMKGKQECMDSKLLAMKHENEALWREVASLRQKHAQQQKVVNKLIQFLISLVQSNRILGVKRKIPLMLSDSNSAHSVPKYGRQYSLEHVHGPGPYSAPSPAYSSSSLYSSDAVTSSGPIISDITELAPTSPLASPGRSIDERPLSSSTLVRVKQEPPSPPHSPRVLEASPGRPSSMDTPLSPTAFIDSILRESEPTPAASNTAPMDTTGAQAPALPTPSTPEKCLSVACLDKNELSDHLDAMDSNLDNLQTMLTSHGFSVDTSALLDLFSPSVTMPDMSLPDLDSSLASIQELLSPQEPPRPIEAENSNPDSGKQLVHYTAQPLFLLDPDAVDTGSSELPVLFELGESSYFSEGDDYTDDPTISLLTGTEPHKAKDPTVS
# [2] = molecular target: T2, Rac GTPase-activating protein 1 (Homo sapiens, UniProt Q9H0H5); test: blockers of MgcRacGAP-driven Rac1 GTP hydrolysis – biochemical, ADP Hunter fluorescence, primary and confirmatory, confirmation (AID 624330); assay type: functional
# T2 sequence (Q9H0H5 whole entry): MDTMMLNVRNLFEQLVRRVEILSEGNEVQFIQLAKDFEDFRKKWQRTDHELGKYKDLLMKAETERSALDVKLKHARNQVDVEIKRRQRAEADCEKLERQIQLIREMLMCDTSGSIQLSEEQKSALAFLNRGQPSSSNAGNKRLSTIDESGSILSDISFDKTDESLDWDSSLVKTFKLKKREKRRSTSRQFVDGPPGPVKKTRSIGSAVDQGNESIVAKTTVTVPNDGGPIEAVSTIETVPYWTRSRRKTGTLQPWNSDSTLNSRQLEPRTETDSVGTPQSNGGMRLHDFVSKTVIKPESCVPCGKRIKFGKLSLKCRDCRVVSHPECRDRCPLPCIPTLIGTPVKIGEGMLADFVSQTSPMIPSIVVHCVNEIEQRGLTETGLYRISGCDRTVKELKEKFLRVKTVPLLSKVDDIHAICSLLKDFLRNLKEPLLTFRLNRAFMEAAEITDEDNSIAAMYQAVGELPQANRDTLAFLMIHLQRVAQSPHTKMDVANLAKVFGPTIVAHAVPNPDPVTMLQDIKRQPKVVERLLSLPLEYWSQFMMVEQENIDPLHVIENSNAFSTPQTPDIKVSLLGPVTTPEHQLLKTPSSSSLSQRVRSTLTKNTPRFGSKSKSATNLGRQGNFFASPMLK
# [3] = molecular target: T1, Heat shock factor protein 1; test: enhancement of HSF1-driven luciferase signal – cell-based, NIH3T3, luminescence, dose retest, confirmation (AID 435004); assay type: functional;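 further: stress induced by proteasome inhibitor MG132 added 30 min after compound; luciferase reporter driven by HSF1 response element in NIH3T3 cells; actives raise luminescence as potentiators of the MG132 stress response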
# [4] = molecular target: T3, Corticotropin-releasing factor receptor 2/Corticotropin-releasing factor-binding protein (Homo sapiens, UniProt P24387+Q13324); test: Dose Response confirmation of uHTS hits for small molecule antagonists of the CRF-binding protein and CRF-R2 receptor complex.; assay type: functional; conditions: read-out: IC50_Mean
# T3 sequence (Q13324 whole entry): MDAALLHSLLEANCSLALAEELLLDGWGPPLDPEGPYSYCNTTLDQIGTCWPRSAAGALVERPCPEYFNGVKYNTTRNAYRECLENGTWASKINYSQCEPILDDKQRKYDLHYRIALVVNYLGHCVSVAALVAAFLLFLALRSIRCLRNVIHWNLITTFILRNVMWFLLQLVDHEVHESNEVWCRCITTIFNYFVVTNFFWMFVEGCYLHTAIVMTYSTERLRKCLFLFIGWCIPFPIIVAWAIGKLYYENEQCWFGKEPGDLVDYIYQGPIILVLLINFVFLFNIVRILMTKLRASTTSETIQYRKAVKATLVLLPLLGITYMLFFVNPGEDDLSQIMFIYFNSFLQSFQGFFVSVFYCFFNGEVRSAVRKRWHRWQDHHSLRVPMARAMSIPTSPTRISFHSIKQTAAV
# T3 sequence (P24387 whole entry): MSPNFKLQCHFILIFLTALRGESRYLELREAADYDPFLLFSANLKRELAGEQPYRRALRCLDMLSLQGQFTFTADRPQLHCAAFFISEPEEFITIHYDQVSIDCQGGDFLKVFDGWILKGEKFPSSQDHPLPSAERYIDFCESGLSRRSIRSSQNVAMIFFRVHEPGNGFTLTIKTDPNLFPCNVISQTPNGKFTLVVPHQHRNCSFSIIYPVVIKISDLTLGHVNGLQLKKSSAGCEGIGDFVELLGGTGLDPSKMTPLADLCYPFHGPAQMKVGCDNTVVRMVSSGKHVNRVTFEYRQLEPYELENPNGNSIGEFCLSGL
# [5] = molecular target: T3, Corticotropin-releasing factor receptor 2/Corticotropin-releasing factor-binding protein; test: activators of CRF receptor 2 with binding protein – uHTS hits, confirmation (AID 602473); assay type: functional; conditions: read-out: EC50_Mean
# Cytochrome P450 3A4 = Cytochrome P450 3A4 (Homo sapiens, UniProt P08684);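 further: CYP3A4 tested as one member of a cytochrome P450 panel screen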
# Chain of Cytochrome P450 3A4 (P08684 whole entry): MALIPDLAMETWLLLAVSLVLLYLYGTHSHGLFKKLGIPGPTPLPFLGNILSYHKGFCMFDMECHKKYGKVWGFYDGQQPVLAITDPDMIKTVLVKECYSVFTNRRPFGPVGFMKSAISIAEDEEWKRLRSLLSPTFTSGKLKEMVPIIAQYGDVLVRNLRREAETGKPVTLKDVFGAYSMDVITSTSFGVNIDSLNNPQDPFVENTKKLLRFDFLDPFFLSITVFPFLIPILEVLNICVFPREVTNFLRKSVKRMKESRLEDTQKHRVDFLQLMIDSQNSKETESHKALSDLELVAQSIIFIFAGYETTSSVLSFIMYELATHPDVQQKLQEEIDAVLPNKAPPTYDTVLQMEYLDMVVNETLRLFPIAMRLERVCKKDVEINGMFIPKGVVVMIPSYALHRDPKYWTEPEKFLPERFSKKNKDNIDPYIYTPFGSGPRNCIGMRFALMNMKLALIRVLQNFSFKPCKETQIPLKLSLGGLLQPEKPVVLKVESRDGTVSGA
# Cytochrome P450 1A2 = molecular target: T4, Cytochrome P450 1A2 (Homo sapiens, UniProt P05177);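 further: PubChem cytochrome P450 panel assay, CYP1A2 panel member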
# T4 sequence (P05177 whole entry): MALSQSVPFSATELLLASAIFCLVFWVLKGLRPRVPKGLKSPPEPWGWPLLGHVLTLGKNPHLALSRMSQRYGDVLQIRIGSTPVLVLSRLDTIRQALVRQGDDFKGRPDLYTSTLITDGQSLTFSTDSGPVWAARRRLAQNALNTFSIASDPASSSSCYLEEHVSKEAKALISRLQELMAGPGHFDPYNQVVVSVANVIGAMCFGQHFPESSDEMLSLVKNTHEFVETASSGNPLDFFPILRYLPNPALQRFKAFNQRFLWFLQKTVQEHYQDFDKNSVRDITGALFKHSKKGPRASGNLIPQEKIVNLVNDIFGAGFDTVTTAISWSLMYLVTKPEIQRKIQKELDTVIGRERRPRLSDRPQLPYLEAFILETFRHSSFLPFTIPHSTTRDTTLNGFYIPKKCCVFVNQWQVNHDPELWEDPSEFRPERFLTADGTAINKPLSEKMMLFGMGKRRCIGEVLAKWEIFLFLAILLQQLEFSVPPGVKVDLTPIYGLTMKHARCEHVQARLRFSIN
# Cytochrome P450 2C9 = Cytochrome P450 2C9 (Homo sapiens, UniProt P11712)
# Chain of Cytochrome P450 2C9 (P11712 whole entry): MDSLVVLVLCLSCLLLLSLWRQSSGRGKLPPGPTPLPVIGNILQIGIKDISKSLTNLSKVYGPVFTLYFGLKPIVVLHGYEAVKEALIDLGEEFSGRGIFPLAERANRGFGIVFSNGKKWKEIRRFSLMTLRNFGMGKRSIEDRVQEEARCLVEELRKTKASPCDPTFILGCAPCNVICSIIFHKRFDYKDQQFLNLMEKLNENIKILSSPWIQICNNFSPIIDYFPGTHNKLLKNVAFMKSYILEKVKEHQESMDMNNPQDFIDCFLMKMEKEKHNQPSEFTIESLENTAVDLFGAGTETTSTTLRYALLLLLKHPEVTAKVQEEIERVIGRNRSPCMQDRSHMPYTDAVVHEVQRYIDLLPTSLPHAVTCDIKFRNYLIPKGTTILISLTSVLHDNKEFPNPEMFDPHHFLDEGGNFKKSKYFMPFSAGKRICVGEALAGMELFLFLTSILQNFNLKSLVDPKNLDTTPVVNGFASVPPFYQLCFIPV
SMILES,EC50 [1],IC50 [4],EC50 [5],other results
CCC(=O)N1CCc2cc(S(=O)(=O)NCCC(=O)Nc3ccccc3C)ccc21,> 195 µM (not active),,,
Cc1ccc(C(C)C)c(OCCCCN2CCNCC2)c1,,,,IC50 [2]: 87.9 µM (active)
Cc1cc(O)nc(SCc2nc3ccccc3c(=O)n2-c2ccccc2C)n1,,,,EC50 [3]: > 260 µM (inactive)
CCOC(=O)c1c(S(=O)(=O)N2CCCCC2C)c(C)n(C)c1C (stereo not drawn),> 195 µM (not active),,,
COc1ccc(C)cc1NC(=O)C(NCC(O)c1ccccc1)c1ccccc1 (stereo not drawn),,,,IC50 [2]: 96.8 µM (active)
COc1ccc2nnc(-c3ccc(C(F)(F)F)cc3)n2n1,> 195 µM (not active),,,
O=C(CSc1nnnn1CCCO)Nc1ccc2c(c1)OCO2,> 195 µM (not active),,,
COc1ccc(Br)cc1CN1CCC(N2CCCC2)CC1,,,,IC50 [2]: 59.6 µM (active)
Cc1[nH]n(-c2ccccc2)c(=O)c1/C=N/CCc1ccccc1,,,,EC50 [3]: 85.4 µM (active)
CC1Cc2ccccc2N1CC(=O)NC(=O)NCc1ccccc1 (stereo not drawn),> 195 µM (not active),,,
Cc1ccc(/C=C2\Oc3cc(OC(=O)N4CCOCC4)ccc3C2=O)cc1,,,,EC50 [3]: > 260 µM (inactive)
O=C(CCCc1cccs1)Nc1ccc2c(c1)OCO2,,> 47.1 µM (inactive),> 53 µM (inactive),
COc1ccc(OC2C(=O)N(c3cc(C)ccc3C)C2c2ccc(OC)c(OC)c2)cc1 (stereo not drawn),,> 47.1 µM (inactive),> 53 µM (inactive),
COc1cc(/C=N/NC(=O)/C(=C\c2ccc3c(c2)OCO3)NC(=O)c2ccccc2)ccc1O,,,,IC50 [2]: 79.4 µM (active)
O=C(NCCN1CCCCC1)Nc1ccccc1Cl,> 195 µM (not active),,,
Cc1ccc2[nH]c3c(c2c1)CCN(C)C3,> 195 µM (not active),,,
CCC(C)[C@H](NC(=O)NCc1cccc(OC)c1)C(=O)O (stereo partly drawn),> 195 µM (not active),,,
CCCn1c(C)nc2c(c1=O)c1nc3ccccc3nc1n2CCC1=CCCCC1,,,,EC50 [3]: > 260 µM (inactive); AC50 (Cytochrome P450 3A4): 3.16 µM (inconclusive)
O=C(COc1ccc(Cl)cc1)N1CCCC1,> 195 µM (not active),,,
COc1cccc(C(=O)Nc2cc(C(=O)NCc3ccc(C)cc3)ccc2N2CCC3(CC2)CC(c2cccc(Br)c2)=NO3)c1,,< 0.368 µM (active),> 53 µM (inactive),
CC(=O)Nc1c(C(=O)Nc2ccc3c(c2)OCO3)oc2ccccc12,> 195 µM (not active),,,
CCCC[C@@H]1C[C@H]1[C@@H](NC(=O)c1ccco1)c1ccc(Cl)cc1,> 195 µM (not active),,,
C#CCCCC(=O)Nc1ccccc1,,,,AC50 (Cytochrome P450 1A2): 20 µM (inconclusive); AC50 (Cytochrome P450 3A4): 25.1 µM (inconclusive)
CN(C)/C=C/C(=O)c1ccc(S(=O)(=O)c2ccccc2)cc1,> 195 µM (not active),,,
C=CCNC(=O)c1c(C(F)(F)F)nn(C)c1Cl,> 195 µM (not active),,,

SMILES,EC50 [1],IC50 [4],EC50 [5],other results
NC(=NOC(=O)COc1ccc(Br)cc1)c1ccncc1,,> 47.1 µM (inactive),> 53 µM (inactive),
Cc1onc(-c2ccccc2)c1C(=O)OCc1nnc(-c2ccccc2)o1,,,,EC50 [3]: > 260 µM (inactive)
Brc1ccc(-c2noc(CCc3ccccc3)n2)o1,,> 47.1 µM (inactive),> 53 µM (inactive),
CCN(CC)CCCN1C(=O)c2oc3ccccc3c(=O)c2C1c1cccc(OC)c1OC (stereo not drawn),,,,EC50 [3]: > 260 µM (inactive)
OC(CNCc1ccc(F)cc1)(c1ccc(F)cc1)c1ccc(F)cc1,,,,EC50 [3]: > 260 µM (inactive); AC50 (Cytochrome P450 2C9): 12.6 µM (inconclusive)
CCOC(=O)C1CCCN(CC(=O)Nc2c(C(=O)OC)[nH]c3ccccc23)C1 (stereo not drawn),,,,EC50 [3]: > 260 µM (inactive)
CCOC(=O)c1cn2nc(Oc3cccc(F)c3)ccc2n1,,> 47.1 µM (inactive),> 53 µM (inactive),
CCOC(=O)c1c(CN2CCC(C)CC2)n(C)c2cc(Br)c(OC)cc12,,,,EC50 [3]: > 260 µM (inactive)
COC(=O)CNC(c1ccccc1)c1cc(Br)ccc1N (stereo not drawn),,,,EC50 [3]: > 260 µM (inactive)
O=C(Nc1ccccn1)C1CCN(S(=O)(=O)c2ccc3ccccc3c2)CC1,,> 47.1 µM (inactive),> 53 µM (inactive),
COc1ccc(C(=O)/C=C2/C(=O)Nc3ccccc32)cc1OC,,,,EC50 [3]: > 260 µM (inactive)
CCOc1ccccc1N1CCN(C(=O)C2CSC3(C)CCC(=O)N23)CC1 (stereo not drawn),,> 47.1 µM (inactive),> 53 µM (inactive),
COc1ccc(C)cc1NC(=O)C(=O)NNC(=O)COc1ccc(Cl)cc1,14.8 µM (active),,,
COc1ccc(OC)c(CN2CCN(S(=O)(=O)c3ccc(NC(C)=O)cc3)CC2)c1,,> 47.1 µM (inactive),> 53 µM (inactive),
CCC(C)N(C(=O)C(F)(F)F)C(C(=O)NC1CCCCC1)c1ccncc1 (stereo not drawn),> 195 µM (not active),,,
Cc1c(C(=O)N2CC(C(=O)N3CCCCC3)Oc3ccccc32)oc2ccccc12 (stereo not drawn),,> 47.1 µM (inactive),> 53 µM (inactive),
CC(=O)OCCNC(=O)c1cccnc1,,,,AC50 (Cytochrome P450 1A2): 31.6 µM (inconclusive); AC50 (Cytochrome P450 3A4): 20 µM (inconclusive)
Cc1ccc(S(=O)(=O)N2CCN(C(=O)COc3ccc(C)nc3[N+](=O)[O-])CC2)c(C)c1,,> 47.1 µM (inactive),> 53 µM (inactive),
CC(C)(C)c1ccc(/C=C(\C#N)C(=O)Nc2ccccn2)cc1,> 195 µM (not active),,,
COc1ccc(-c2noc(C(=O)NCc3ccc(F)cc3)n2)cc1OC,,> 47.1 µM (inactive),> 53 µM (inactive),
O=C(N/N=C/CCc1ccccc1)c1ccccc1,,,,EC50 [3]: > 260 µM (inactive)
CCC(C(=O)NCCN1CCOCC1)n1c2ccccc2c2nc(=O)cc(C)n21 (stereo not drawn),,> 47.1 µM (inactive),> 53 µM (inactive),
CCOc1ccc(OCCSc2nc(N)cc(=O)[nH]2)cc1,,> 47.1 µM (inactive),> 53 µM (inactive),
Cc1nn(C(=O)c2c(-c3ccccc3)noc2C)c(C)c1N=Nc1cc(C(F)(F)F)cc(C(F)(F)F)c1,,> 47.1 µM (inactive),> 53 µM (inactive),
